Data published in US10214546B2, “Btk inhibitors” (MERCK SHARP & DOHME CORP., priority 2014, dated 2019).
Read-outs that look alike come from different tables or passages of the source.

Tests used:
[1] = test system: adenosine uptake into HeLa cells; test: [3H]Adenosine uptake assay in HeLa cells; assay type: cell-based; details: [3H]adenosine accumulation in HeLa cells, compound range 10 μM to 0.032 nM, read-out: ADU inhibition IC50
Summary of the method: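 IC50 came from a 4-parameter fit of counts per second over a ten-point, 1:3 titration (final 10 µM down to […]). Compound was applied 30 min at ambient temperature in HBSS/5% FBS before a 500 nM [3H]adenosine solution was added; uptake ran 60 min, read by Cytostar-T proximity scintillation.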

[2] = molecular target: BTK enzyme (recombinant full-length BTK, hBTK) (Homo sapiens (Human), UniProt Q06187); test: BTK enzymatic activity LANCE TR-FRET assay; assay type: biochemical; details: 50 pM hBTK, 25 μM ATP, 2 μM biotin-A5-peptide; compound range 1 μM to 0.017 nM; read-out: BTK binding IC50
Sequence of BTK enzyme (recombinant full-length BTK, hBTK) (Q06187 whole entry): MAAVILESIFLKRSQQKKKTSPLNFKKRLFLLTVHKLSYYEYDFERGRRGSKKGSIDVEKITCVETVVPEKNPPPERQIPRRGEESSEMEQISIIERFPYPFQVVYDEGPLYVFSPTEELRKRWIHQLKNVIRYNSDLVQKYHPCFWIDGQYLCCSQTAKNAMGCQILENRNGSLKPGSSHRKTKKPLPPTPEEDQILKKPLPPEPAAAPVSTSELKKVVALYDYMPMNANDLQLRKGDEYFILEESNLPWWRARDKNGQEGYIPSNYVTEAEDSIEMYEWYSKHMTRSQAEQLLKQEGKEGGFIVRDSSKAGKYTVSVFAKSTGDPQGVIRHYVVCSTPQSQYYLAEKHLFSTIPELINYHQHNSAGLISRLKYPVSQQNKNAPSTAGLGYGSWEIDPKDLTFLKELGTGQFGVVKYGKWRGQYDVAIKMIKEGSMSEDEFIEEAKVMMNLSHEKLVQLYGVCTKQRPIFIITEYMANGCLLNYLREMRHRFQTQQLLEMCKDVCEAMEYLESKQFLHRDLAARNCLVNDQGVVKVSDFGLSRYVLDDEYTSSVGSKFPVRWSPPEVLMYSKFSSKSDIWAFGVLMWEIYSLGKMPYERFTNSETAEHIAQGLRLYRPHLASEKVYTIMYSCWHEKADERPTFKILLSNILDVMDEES

| Structure (SMILES) | IC50 [1] | IC50 [2] | IC50 ([1]; Homo sapiens, HeLa) |
| --- | --- | --- | --- |
| C[C@@](O)(c1ccc(-c2nc([C@@H]3CC[C@H]4C(C(F)(F)F)CC(=O)N4C3)n3ccnc(N)c23)cc1)c1cccc(C(F)(F)F)c1 (stereo partly drawn) [Example 180, (1R,6R,8aS)-6-[8-amino-1-(4-{(1R)-1-hydroxy-1-[3-(trifluoromethyl)phenyl]ethyl}phenyl)imidazo [1,5-a]pyrazin-3-yl]-1-(trifluoromethyl) hexahydroindolizin-3(2H)-one] | 2460 nM | 4.2 nM | – |
| COc1ccccc1[C@@](C)(O)c1ccc(-c2nc([C@@H]3CC[C@H]4CCC(=O)N4C3)n3ccnc(N)c23)cc1 [Example 49, (6R,8aS)-6-(8-amino-1-{4-[(1S)-1-hydroxy-1-(2-methoxyphenyl)ethyl]phenyl}imidazo[1,5-a]pyrazin-3-yl)hexahydroindolizin-3(2H)-one] | – | 45.2 nM | 2950 nM |
| COc1cc(-c2nc([C@@H]3CC[C@H]4CCC(=O)N4C3)n3ccnc(N)c23)ccc1C(C)(O)c1cccc(C(F)(F)F)c1 (stereo partly drawn) [Example 64, (6R,8aS)-6-[8-amino-1-(4-{1-hydroxy-1-[3-(trifluoromethyl)phenyl]ethyl}-3-methoxyphenyl)imidao [1,5-a]pyrazin-3-yl]hexahydroindolizin-3(2H)-one] | 936 nM | 59.1 nM | – |
| Nc1nccn2c([C@@H]3CC[C@H]4CCC(=O)N4C3)nc(-c3ccc(C(O)c4cc(C(F)(F)F)ccc4F)cc3)c12 (stereo partly drawn) [Example 128] | 1470 nM | 12.4 nM | – |
| COc1cc(C(C)(O)c2cccc(C(F)(F)F)c2)ccc1-c1nc([C@@H]2CC[C@@H]3N(C2)C(=O)CC3(C)C)n2ccnc(N)c12 (stereo partly drawn) [Example 205, (6R,8aS)-6-[8-amino-1-(4-{1-hydroxy-1-[3-(trifluoromethyl)phenyl]ethyl}-2-methoxyphenyl)imidazo [1,5-a]pyrazin-3-yl]-1,1-dimethylhexahydroindolizin-3(2H)-one] | 3500 nM | 2 nM | – |
| CC(O)(c1ccccc1)c1ccc(-c2nc([C@@H]3CC[C@H]4CCC(=O)N4C3)n3ccnc(N)c23)c(F)c1 (stereo partly drawn) [Example 24] | – | 5.2 nM | 2490 nM |
| CC(O)(c1cccc(C(F)(F)F)c1)c1ccc(-c2nc([C@@H]3CC[C@H]4CCC(=O)N4C3)n3ccnc(N)c23)c(C2CC2)c1 (stereo partly drawn) [Example 88, (6R,8aS)-6-[8-amino-1-(2-cyclopropyl-4-{1-hydroxy-1-[3-(trifluoromethyl)phenyl]ethyl}phenyl)imidazo [1,5-a]pyrazin-3-yl]hexahydroindolizin-3(2H)-one] | – | 576 nM | 1100 nM |
| C[C@@](O)(c1ccc(-c2nc([C@@H]3CC[C@@H]4N(C3)C(=O)CC43CC3)n3ccnc(N)c23)cc1)c1cccc(C(F)F)c1 [Example 189, (6′R,8a′S)-6′-[8-amino-1-(4-{(1R)-1-[3-(difluoromethyl)phenyl]-1-hydroxyethyl}phenyl)imidazo[1,5-a]pyrazin-3-yl]tetrahydro-5′H-spiro[cyclopropane-1,1′-indolizin]-3′(2′H)-one] | – | 0.17 nM | 2080 nM |
| C[C@@](O)(c1ccc(-c2nc([C@@H]3CC[C@H]4C(C(F)(F)F)CC(=O)N4C3)n3ccnc(N)c23)cc1)c1cccc(C(F)(F)F)c1 (stereo partly drawn) [Example 179, (1R,6R,8aS)-6-[8-amino-1-(4-{(1R)-1-hydroxy-1-[3-(trifluoromethyl)phenyl]ethyl}phenyl)imidazo [1,5-a]pyrazin-3-yl]-1-(trifluoromethyl) hexahydroindolizin-3(2H)-one] | – | 3.5 nM | 3300 nM |
| C[C@@](O)(c1ccc(-c2nc([C@@H]3CC[C@H]4N(C3)C(=O)CCC4(F)F)n3ccnc(N)c23)cc1)c1cccc(C(F)(F)F)c1 [Example 170, (7R,9aR)-7-[8-amino-1-(4-{(1R)-1-hydroxy-1-[3-(trifluoromethyl)phenyl]ethyl}phenyl)imidazo [1,5-a]pyrazin-3-yl]-1,1-difluorooctahydro-4H-quinolizin-4-one] | – | 556 nM | 7110 nM |
| C[C@@](O)(c1ccc(-c2nc([C@H]3CC[C@@H]4N(C3)C(=O)CCC4(F)F)n3ccnc(N)c23)cc1)c1cccc(C(F)(F)F)c1 [Example 171, (7S,9aS)-7-[8-amino-1-(4-{(1R)-1-hydroxy-1-[3-(trifluoromethyl)phenyl]ethyl}phenyl)imidazo [1,5-a]pyrazin-3-yl]-1,1-difluorooctahydro-4H-quinolizin-4-one] | – | 89 nM | 7960 nM |
| C[C@@](O)(c1ccc(-c2nc([C@@H]3CC[C@H]4CCC(=O)N4C3)n3c(F)cnc(N)c23)cc1)c1cccc(C(F)(F)F)c1 [Example 158, (6R,8aS)-6-[8-amino-5-fluoro-1-(4-{(1R)-1-hydroxy-1-[3-(trifluoromethyl)phenyl]ethyl}phenyl)imidazo [1,5-a]pyrazin-3-yl]hexahydroindolizin-3(2H)-one] | – | 4.7 nM | 6300 nM |
| CC1OC(=O)N2C[C@H](c3nc(-c4ccc([C@@](C)(O)c5cccc(C(F)(F)F)c5)cc4)c4c(N)nccn34)OC[C@@H]12 (stereo partly drawn) [Example 8, (6R,8aS)-6-(8-amino-1-(4-((R)-1-hydroxy-1-(3-(trifluoromethyl)phenyl)ethyl)phenyl)imidazo[1,5-a]pyrazin-3-yl)-1-methyltetrahydrooxazolo[4,3-c][14]oxazin-3(1H)-one] | 5080 nM | 20.6 nM | – |
| CC(O)(c1cccc(C(F)F)c1)c1ccc(-c2nc([C@@H]3CC[C@H]4CCC(=O)N4C3)n3ccnc(N)c23)c(F)c1 (stereo partly drawn) [Example 195] | 3500 nM | 0.33 nM | – |
| C[C@](O)(c1ccc(-c2nc([C@@H]3CC[C@H]4CCC(=O)N4C3)n3c(Cl)cnc(N)c23)cc1)c1cccc(C2CC2)c1 [Example 116, (6R,8aS)-6-(8-amino-5-chloro-1-{4-[(1S)-1-(3-cyclopropylphenyl)-1-hydroxyethyl]phenyl}imidazo[1,5-a]pyrazin-3-yl)hexahydroindolizin-3(2H)-one] | – | 0.87 nM | 458 nM |
| CCOc1cc([C@@](C)(O)c2cccc(C(F)(F)F)c2)ccc1-c1nc([C@@H]2CC[C@H]3CCC(=O)N3C2)n2c(F)cnc(N)c12 [Example 204, (6R,8aS)-6-[8-amino-1-(2-ethoxy-4-{(1S)-1-hydroxy-1-[3-(trifluoromethyl)phenyl]ethyl}phenyl)-5-fluoroimidazo[1,5-a]pyrazin-3-yl]hexahydroindolizin-3(2H)-one] | – | 2.2 nM | 5870 nM |

More lines, now with the values ahead:

| IC50 [1] | IC50 [2] | IC50 ([1]; Homo sapiens, HeLa) | Structure (SMILES) |
| --- | --- | --- | --- |
| 985 nM | 67.6 nM | – | CC(O)(c1ccc(-c2nc([C@@H]3CC[C@H]4CCC(=O)N4C3)n3ccnc(N)c23)cc1)c1cccc(OC(F)F)c1 (stereo partly drawn) [Example 144, (6R,8aS)-6-[8-amino-1-(4-{1-[3-(difluoromethoxy)phenyl]-1-hydroxyethyl}phenyl)imidazo[1,5-a]pyrazin-3-yl]hexahydroindolizin-3(2H)-one] |
| – | 4.9 nM | 6470 nM | C[C@@](O)(c1ccc(-c2nc([C@@H]3CC[C@H]4CCC(=O)N4C3)n3ccnc(N)c23)cc1)c1ccccc1F [Example 69, (6R,8aS)-6-(8-amino-1-{4-[(1R)-1-(2-fluorophenyl)-1-hydroxyethyl]phenyl}imidazo[1,5-a]pyrazin-3-yl)hexahydroindolizin-3(2H)-one] |
| – | 156 nM | 2610 nM | Nc1nccn2c([C@@H]3CC[C@H]4CCC(=O)N4C3)nc(-c3ccc([C@@](O)(c4ccccc4)C(F)(F)F)cc3)c12 [Example 26, (6R,8aS)-6-(8-amino-1-{4-[(1S)-2,2,2-trifluoro-1-hydroxy-1-phenylethyl]phenyl}imidazo[1,5-a]pyrazin-3-yl)hexahydroindolizin-3(2H)-one] |
| – | 51.9 nM | 172 nM | CN1CC[C@@H]2CC[C@@H](c3nc(-c4ccc([C@](C)(O)c5cccc(C(F)(F)F)c5)cc4)c4c(N)nccn34)CN2C1=O [Example 115, (4aS,7R)-7-[8-amino-1-(4-{(1S)-1-hydroxy-1-[3-(trifluoromethyl)phenyl]ethyl}phenyl)imidazo [1,5-a]pyrazin-3-yl]-2-methyloctahydro-1H-pyrido[1,2-c]pyrimidin-1-one] |
| – | 24.2 nM | 1040 nM | C[C@](O)(c1ccc(-c2nc([C@@H]3CC[C@H]4CCC(=O)N4C3)n3ccnc(N)c23)cc1)c1cccc(CC(F)(F)F)c1 [Example 77, (6R,8aS)-6-[8-amino-1-(4-{(1S)-1-hydroxy-1-[3-(2,2,2-trifluoroethyl)phenyl]ethyl}phenyl)imidazo[1,5-a]pyrazin-3-yl]hexahydroindolizin-3(2H)-one] |
| 1470 nM | 204 nM | – | CC(C)C(O)(c1ccc(-c2nc([C@@H]3CC[C@H]4CCC(=O)N4C3)n3ccnc(N)c23)cc1)c1cccc(C(F)(F)F)c1 (stereo partly drawn) [Example 79, (6R,8aS)-6-[8-amino-1-(4-{1-hydroxy-2-methyl-1-[3-(trifluoromethyl)phenyl]propyl}phenyl)imidazo [1,5-a]pyrazin-3-yl]hexahydroindolizin-3(2H)-one] |
| – | 81.4 nM | 1780 nM | COc1cccc([C@@](C)(O)c2ccc(-c3nc([C@@H]4CC[C@H]5CCC(=O)N5C4)n4ccnc(N)c34)cc2)c1 [Example 44, (6R,8aS)-6-(8-amino-1-{4-[(1S)-1-hydroxy-1-(3-methoxyphenyl)ethyl]phenyl}imidazo[1,5-a]pyrazin-3-yl)hexahydroindolizin-3(2H)-one] |
| 1580 nM | 123 nM | – | Nc1nccn2c([C@@H]3CC[C@H]4CCC(=O)N4C3)nc(-c3ccc(C(O)(c4cccc(C(F)(F)F)c4)C4CC4)cc3)c12 (stereo partly drawn) [Example 87, (6R,8aS)-6-[8-amino-1-(4-{cyclopropyl(hydroxy)[3-(trifluoromethyl)phenyl]methyl}phenyl)imidazo [1,5-a]pyrazin-3-yl]hexahydroindolizin-3(2H)-one] |
